Results as given in PMC5266331, “Novel PARP-1 Inhibitor Scaffolds Disclosed by a Dynamic Structure-Based Pharmacophore Approach” (PLoS ONE, 2017).

Target: T1, PARP-1 (Homo sapiens, UniProt P09874)
T1 construct: gene PARP1
Experiment: HT Universal Colorimetric PARP Assay kit (histone-coated wells, biotinylated poly(ADP-ribose))
Type: biochemical

T1 sequence (P09874 2-1014): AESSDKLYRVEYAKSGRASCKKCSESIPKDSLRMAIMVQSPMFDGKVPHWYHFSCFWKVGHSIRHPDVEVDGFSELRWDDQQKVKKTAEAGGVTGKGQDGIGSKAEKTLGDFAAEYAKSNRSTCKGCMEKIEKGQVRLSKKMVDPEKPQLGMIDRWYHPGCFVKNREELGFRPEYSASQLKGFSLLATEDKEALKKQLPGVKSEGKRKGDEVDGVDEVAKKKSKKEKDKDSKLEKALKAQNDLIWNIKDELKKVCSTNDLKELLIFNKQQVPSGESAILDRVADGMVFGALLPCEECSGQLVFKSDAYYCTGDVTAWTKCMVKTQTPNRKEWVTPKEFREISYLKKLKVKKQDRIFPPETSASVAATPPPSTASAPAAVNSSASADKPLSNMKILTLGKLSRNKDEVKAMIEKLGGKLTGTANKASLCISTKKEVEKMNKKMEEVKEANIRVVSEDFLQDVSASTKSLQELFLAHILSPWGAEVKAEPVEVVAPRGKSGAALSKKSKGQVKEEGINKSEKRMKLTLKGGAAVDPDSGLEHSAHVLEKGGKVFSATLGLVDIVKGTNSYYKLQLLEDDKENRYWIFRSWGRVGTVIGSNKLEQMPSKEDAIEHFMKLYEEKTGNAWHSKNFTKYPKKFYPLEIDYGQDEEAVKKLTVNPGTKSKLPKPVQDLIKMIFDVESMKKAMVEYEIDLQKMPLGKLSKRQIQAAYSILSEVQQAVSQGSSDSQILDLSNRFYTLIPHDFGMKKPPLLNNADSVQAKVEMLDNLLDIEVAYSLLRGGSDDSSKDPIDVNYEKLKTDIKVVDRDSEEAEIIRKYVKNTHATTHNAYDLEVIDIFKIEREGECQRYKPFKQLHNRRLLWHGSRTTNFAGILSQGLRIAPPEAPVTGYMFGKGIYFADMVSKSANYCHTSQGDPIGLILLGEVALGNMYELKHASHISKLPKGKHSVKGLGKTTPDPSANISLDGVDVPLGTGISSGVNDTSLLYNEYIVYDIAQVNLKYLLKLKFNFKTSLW

Molecule `COc1ccc2c(c1O)CNCC2c1ccc(O)c(O)c1` (stereo not shown) [NSC131753] has an IC50 of 240 nM.
